Source: patent publication EP0081425B1, “Pharmaceutical compositions having normolipemic properties and containing compounds of the n-substituted benzenesulfonamide type” (priority 1981, dated 1983)
Where two headings read alike, the source gives them in different places.

Test system: hyperlipidémie provoquée par l'administration de TRITON®
Experiment: Triton test: hyperlipidemia induced by i.v. TRITON W.R. in fasted rats
Format: in vivo, rats WISTAR mâles
Conditions: for Lipides totaux Score (par rapport au clofibrate compté pour 1) / Cholestérol estérifié Score (par rapport au clofibrate compté pour 1) / Cholestérol total Score (par rapport au clofibrate compté pour 1) / Triglycérides Score (par rapport au clofibrate compté pour 1): ratio to clofibrate of the same series; for inhibition in vivo at 250 mg/kg: Rattus norvegicus, po, blood assayed 6 h and/or 24 h later
Excerpt: Dans une première série d'expériences, des produits ont été testés sur une hyperlipidémie provoquée par l'administration de TRITON® selon le protocole suivant.
Les essais ont été réalisés sur des groupes de cinq rats WISTAR mâles dont le poids varie de 150 à 175 g.
Pour effectuer ces essais, on provoque une hyperlipidémie chez les animaux, au moyen du produit commercialisé par la Société ROHM and HAAS sous le nom de TRITON® W. R.
On observe, sur cette hyperlipidémie, les effets obtenus par administration des substances actives selon l'invention.
Les essais sont réalisés comme suit : • les rats sont mis à jeûner pendant 18 heures, puis on administre le TRITON® W.R. par voie intraveineuse en solution aqueuse à 10 % à raison de 200 mg/kg ;
6 heures et/ou 24 heures plus tard, on effectue les dosages sur le sang de façon traditionnelle.
Dans la première colonne, on a indiqué le numéro du composé testé.
Dans la deuxième colonne, on a indiqué le nombre d'animaux qui ont été soumis au test.
Dans les quatre dernières colonnes, on a indiqué les résultats relatifs respectivement : • aux lipides totaux, • aux triglycérides, • au cholestérol total, • au cholestérol estérifié.
Dans chacune de ces colonnes, on indique : • a) le pourcentage de diminution par rapport au témoin TRITON; • b) le score par rapport au clofibrate de référence, c'est-à-dire le rapport de l'intensité de l'activité du produit testé vis-à-vis de celle,de l'activité au clofibrate comptée pour 1.

[1] = 250 mg/kg oral, given with TRITON W.R. 200 mg/kg i.v., read-out: Cholestérol estérifié % (pourcentage de diminution par rapport au témoin TRITON)
[2] = 250 mg/kg oral, given with TRITON W.R. 200 mg/kg i.v., read-out: Cholestérol total % (pourcentage de diminution par rapport au témoin TRITON)
[3] = 250 mg/kg oral, given with TRITON W.R. 200 mg/kg i.v., read-out: Triglycérides % (pourcentage de diminution par rapport au témoin TRITON)
[4] = read-out: Lipides totaux % (pourcentage de diminution par rapport au témoin TRITON), 250 mg/kg oral, given with TRITON W.R. 200 mg/kg i.v.

Compound | Lipides totaux Score (par rapport au clofibrate compté pour 1) (250 mg/kg oral) | inhibition in vivo at 250 mg/kg [1] | inhibition in vivo at 250 mg/kg [2] | inhibition in vivo at 250 mg/kg [3] | inhibition in vivo at 250 mg/kg [4] | Cholestérol estérifié Score (par rapport au clofibrate compté pour 1) (250 mg/kg oral) | Cholestérol total Score (par rapport au clofibrate compté pour 1) (250 mg/kg oral) | Triglycérides Score (par rapport au clofibrate compté pour 1) (250 mg/kg oral)
COc1cc([N+](=O)[O-])c(Cl)cc1S(=O)(=O)N(C)CCO [compound 329] | 0,84 | 0% | 0% | 40% | 37.6% | – | – | –
COc1cc([N+](=O)[O-])c(Cl)cc1S(=O)(=O)NCCO [compound 281, chloro-5 N-(hydroxy-2 éthyl) méthoxy-2 nitro-4 benzènesulfonamide] | 0,25 | 4.9% | 13.3% | 0% | 11.3% | 0,13 | 0,75 | –
COc1ccc([N+](=O)[O-])cc1S(=O)(=O)N(C)CCO [compound 327] | 0,53 | 0% | 0% | 9% | 23.6% | – | – | –
COc1cc([N+](=O)[O-])ccc1S(=O)(=O)N(C)CCO [compound 325] | 0,06 | 1.6% | 0% | 0% | 2.7% | 0,04 | – | –
COc1ccc([N+](=O)[O-])cc1S(=O)(=O)NCCO [compound 279] | – | 0% | 0% | 10.2% | – | – | – | 0,20
COc1cc(N)c(Cl)cc1S(=O)(=O)N(C)CCO [compound 330] | – | 41.9% | 0% | 0% | – | 0,96 | – | –
CCC(CO)NS(=O)(=O)c1cc(Cl)c(N)cc1OC (stereo not shown) [compound 317] | 3,11 | 25.4% | 1.6% | 0% | 42.9% | 0,52 | 0,17 | –
COc1cc(N)ccc1S(=O)(=O)NCCO [compound 278] | – | 22% | 0% | 4.5% | – | 0,65 | – | –
COc1ccc(N)cc1S(=O)(=O)N(C)CCO [compound 328] | 0,46 | 0% | 0% | 0% | 20.7% | – | – | –
CCC(CO)NS(=O)(=O)c1cc(Cl)ccc1OC (stereo not shown) [Composé n° 311] | 0,69 | 0% | 0% | 0% | 17.6% | – | – | –
CCC(CO)NS(=O)(=O)c1ccc([N+](=O)[O-])cc1OC (stereo not shown) [compound 312] | 1,79 | 54.1% | 55.1% | 0% | 45.4% | – | – | –
CCC(CO)NS(=O)(=O)c1cc(Br)ccc1OC (stereo not shown) [Composé n° 645] | 3,62 | 19.4% | 32.6% | 36.8% | 42.3% | 0,50 | 1,54 | 1,21
COc1cc([N+](=O)[O-])ccc1S(=O)(=O)NCC(C)O (stereo not shown) [compound 319] | 1,55 | 16.4% | 1.6% | 56.5% | 21.4% | 0,33 | 0,17 | 0,78
COc1cc([N+](=O)[O-])ccc1S(=O)(=O)NCCO [compound 277] | – | 2.9% | 3.2% | 19.7% | 0% | 0,08 | 0,18 | 0,38
COc1cc(N)c(Cl)cc1S(=O)(=O)NCCO [compound 282] | 0,26 | 15.5% | 13.3% | 21.6% | 12% | 0,46 | 0,75 | 0,42
COc1ccc(Cl)cc1S(=O)(=O)N(C)CCO [compound 324] | 0,58 | 22.6% | 26.2% | 19.4% | 25.9% | 0,52 | 2,85 | –
COc1cc(N)c(Cl)cc1S(=O)(=O)NCC(C)O (stereo not shown) [Composé n° 323] | 1,23 | 62.9% | 39.2% | 53% | 55.2% | 1,44 | 4,26 | –
COc1cc(N)ccc1S(=O)(=O)N(C)CCO [compound 326] | 0,71 | 29% | 3.8% | 20.3% | 31.9% | 0,67 | 0,41 | –
COc1ccc(Cl)cc1S(=O)(=O)NCCO [Composé n° 276] | – | 0% | 4.4% | 24.8% | – | – | 0,25 | 0,48
COc1cc([N+](=O)[O-])c(Cl)cc1S(=O)(=O)NCC(C)O (stereo not shown) [compound 322, chloro-5 N-(hydroxy-2 propyl) méthoxy-2 nitro-4 benzènesulfonamide] | 3,15 | 13.1% | 7.9% | 73.4% | 43.5% | 0,27 | 0,83 | 1,02
COc1ccc(Cl)cc1S(=O)(=O)NCC(C)O (stereo not shown) [Composé n° 318] | 0,77 | 32% | 14.7% | 0% | 10.7% | 0,65 | 1,55 | –
COc1cc(N)ccc1S(=O)(=O)NCC(C)O (stereo not shown) [compound 320] | 1,48 | 16.7% | 15.3% | 66.1% | 20.5% | 0,34 | 1,61 | 0,91
CCC(CO)NS(=O)(=O)c1cc([N+](=O)[O-])ccc1OC (stereo not shown) [compound 314] | 1,02 | 44% | 42.1% | 1.2% | 25.9% | – | – | 0,04
COc1ccc(N)cc1S(=O)(=O)NCCO [compound 280] | – | 2.9% | 1.9% | 0% | – | 0,08 | 0,11 | –
